Where “and” joins values, the source holds several entries; their conditions need not be identical. Identical values can stand only once. Inconclusive results and toxic doses are left out. Rule as the data show it: active = T/C of 150% or more; inactive = T/C below 125%.
System: L1210 leukemia ip in BDF1 mice, survival T/C
Test: NCI In Vivo Anticancer Drug Screen. Data for tumor model L1210 Leukemia (intraperitoneal) in B6D2F1 (BDF1) mice
Conditions: endpoint: mean survival time, higher = longer survival
Method in brief: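 Each compound was tested against a transplantable tumor grown in mice. The endpoint was survival, with treated animals benchmarked against vehicle controls as a simple ratio.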

[1] = dose: 50.0 mg/kg/injection, schedule: Q01DX009 (ip), vehicle: Klucel (hydroxypropylcellulose) (HPC)
[2] = dose: 100.0 mg/kg/injection, schedule: Q01DX001 (ip), vehicle: Klucel (hydroxypropylcellulose) (HPC)
[3] = dose: 100.0 mg/kg/injection, schedule: Q01DX009 (ip), vehicle: Klucel (hydroxypropylcellulose) (HPC)
[4] = dose: 200.0 mg/kg/injection, schedule: Q01DX001 (ip), vehicle: Klucel (hydroxypropylcellulose) (HPC)
[5] = dose: 200.0 mg/kg/injection, schedule: Q01DX009 (ip), vehicle: Klucel (hydroxypropylcellulose) (HPC)
[6] = dose: 400.0 mg/kg/injection, schedule: Q01DX001 (ip), vehicle: Klucel (hydroxypropylcellulose) (HPC)
[7] = dose: 25.0 mg/kg/injection, schedule: Q01DX009 (ip), vehicle: saline with Tween-80
[8] = dose: 50.0 mg/kg/injection, schedule: Q01DX009 (ip), vehicle: saline with Tween-80
[9] = dose: 100.0 mg/kg/injection, schedule: Q01DX009 (ip), vehicle: saline with Tween-80
[10] = dose: 100.0 mg/kg/injection, schedule: Q04DX003 (ip), vehicle: saline with Tween-80
[11] = dose: 200.0 mg/kg/injection, schedule: Q04DX003 (ip), vehicle: saline with Tween-80
[12] = dose: 400.0 mg/kg/injection, schedule: Q04DX003 (ip), vehicle: saline with Tween-80
[13] = dose: 100.0 mg/kg/injection, schedule: Q04DX003 (ip), vehicle: Klucel (hydroxypropylcellulose) (HPC)
[14] = dose: 200.0 mg/kg/injection, schedule: Q04DX003 (ip), vehicle: Klucel (hydroxypropylcellulose) (HPC)
[15] = dose: 400.0 mg/kg/injection, schedule: Q04DX003 (ip), vehicle: Klucel (hydroxypropylcellulose) (HPC)
[16] = dose: 200.0 mg/kg/injection, schedule: Q01DX009 (ip), vehicle: saline with Tween-80
[17] = dose: 400.0 mg/kg/injection, schedule: Q01DX009 (ip), vehicle: saline with Tween-80
[18] = dose: 100.0 mg/kg/injection, schedule: Q01DX001 (ip), vehicle: saline

Measured: T/C

CC1(C)C2CCC(I)(C2)C1I (stereo not given)
inactive: dose: 100.0 mg/kg/injection, schedule: Q01DX001 (ip), vehicle: saline with Tween-80 93 % of control | dose: 200.0 mg/kg/injection, schedule: Q01DX001 (ip), vehicle: saline with Tween-80 90 % of control | dose: 400.0 mg/kg/injection, schedule: Q01DX001 (ip), vehicle: saline with Tween-80 93 % of control

C=CC(C)(CC/C=C(\C)CCC=C(C)C)OC(=O)NC(=O)C(Cl)(Cl)Cl (stereo not given)
inactive: [1] 103 % of control | [2] 111 % of control | [3] 100 % of control | [4] 101 % of control | [5] 97 % of control | [6] 105 % of control

O=[N+]([O-])c1ccc2nc3c(nc2c1)-c1cccc2cccc-3c12
inactive: [7] 89 % of control | [8] 91 % of control | [9] 94 % of control | [10] 97 % of control | [11] 97 % of control | [12] 103 % of control

Oc1c(-c2ccccc2)nn(O)c1-c1ccccc1
inactive: [1] 105 % of control

OCCN(CCO)Cc1cc(Cl)c2cccnc2c1O
inactive: dose: 75.0 mg/kg/injection, schedule: Q01DX001 (ip), vehicle: saline 102 % of control | dose: 150.0 mg/kg/injection, schedule: Q01DX001 (ip), vehicle: saline 104 % of control

O=C(N/N=C/C1CC2C=CC1C2)c1ccncc1 (stereo not given)
inactive: [7] 100 % of control | [8] 102 % of control | [9] 95 % of control and 103 % of control

N=C(N=C(Cc1ccccc1)c1ccccc1)c1ccccc1
inactive: [2] 92 % of control | [13] 104 % of control | [4] 92 % of control | [14] 96 % of control | [6] 94 % of control | [15] 91 % of control

CCN(CC)CCN1C(=O)CN=C(c2ccc[nH]2)c2cc(Cl)ccc21
inactive: [9] 121 % of control | [10] 100 % of control | [16] 106 % of control | [11] 94 % of control | [17] 117 % of control | [12] 96 % of control

CCC(C)C(CN)(CCCCN1CCCC1)c1cccc2ccccc12 (stereo not given)
inactive: [10] 102 % of control

Cc1ccc2c(c1)[n+]([O-])c(N)c(C#N)[n+]2[O-]
inactive: dose: 100.0 mg/kg/injection, schedule: Q04DX002 (ip), vehicle: Klucel (hydroxypropylcellulose) (HPC) 102 % of control | dose: 200.0 mg/kg/injection, schedule: Q04DX002 (ip), vehicle: Klucel (hydroxypropylcellulose) (HPC) 98 % of control

CC(C)CC(Br)C(=O)NCC(=O)O (stereo not given)
inactive: [9] 88 % of control | [16] 91 % of control | [17] 89 % of control

CC(=O)c1cccc(NC(=O)c2ccc(C(=O)Nc3cccc(C(C)=O)c3)cc2)c1
inactive: dose: 100.0 mg/kg/injection, schedule: Q01DX001 (ip), vehicle: other 104 % of control | dose: 200.0 mg/kg/injection, schedule: Q01DX001 (ip), vehicle: other 102 % of control | dose: 400.0 mg/kg/injection, schedule: Q01DX001 (ip), vehicle: other 89 % of control

CC(=O)NC(N)=NCCCC(N)C(=O)O (stereo not given)
inactive: dose: 75.0 mg/kg/injection, schedule: Q04DX003 (ip), vehicle: Klucel (hydroxypropylcellulose) (HPC) 91 % of control | dose: 150.0 mg/kg/injection, schedule: Q04DX003 (ip), vehicle: Klucel (hydroxypropylcellulose) (HPC) 94 % of control | dose: 300.0 mg/kg/injection, schedule: Q04DX003 (ip), vehicle: Klucel (hydroxypropylcellulose) (HPC) 94 % of control

CCOC(=O)C(Cc1ccccc1)(NC=O)C(=O)OCC
inactive: [3] 94 % of control | [5] 98 % of control | dose: 400.0 mg/kg/injection, schedule: Q01DX009 (ip), vehicle: Klucel (hydroxypropylcellulose) (HPC) 96 % of control

CCc1ccc(OS(=O)(=O)c2ccccc2[N+](=O)[O-])cc1
inactive: [9] 96 % of control | [13] 100 % of control | [16] 114 % of control | [14] 100 % of control | [17] 103 % of control | [15] 95 % of control

COC(=O)c1ccccc1NC(=O)Nc1cc([N+](=O)[O-])ccc1OC
inactive: [1] 90 % of control | [3] 97 % of control | [5] 108 % of control

CC(=O)Oc1cc(C(C)C)c(OCCN(C)C)cc1C
inactive: dose: 6.25 mg/kg/injection, schedule: Q01DX009 (ip), vehicle: saline 94 % of control | dose: 12.5 mg/kg/injection, schedule: Q01DX009 (ip), vehicle: saline 98 % of control | dose: 25.0 mg/kg/injection, schedule: Q01DX009 (ip), vehicle: saline 100 % of control

CCN(CC)CC(=O)NCC(CC)(CCN(C)C)c1cccc2ccccc12 (stereo not given)
inactive: dose: 100.0 mg/kg/injection, schedule: Q01DX009 (ip), vehicle: saline 105 % of control | dose: 100.0 mg/kg/injection, schedule: Q04DX003 (ip), vehicle: saline 102 % of control | dose: 200.0 mg/kg/injection, schedule: Q01DX009 (ip), vehicle: saline 97 % of control | dose: 200.0 mg/kg/injection, schedule: Q04DX003 (ip), vehicle: saline 100 % of control

O=[N+]([O-])c1cc([N+](=O)[O-])c2sc3ccccc3c2c1
inactive: dose: 50.0 mg/kg/injection, schedule: Q04DX002 (ip), vehicle: saline with Tween-80 97 % of control | dose: 100.0 mg/kg/injection, schedule: Q04DX002 (ip), vehicle: saline with Tween-80 104 % of control and 90 % of control | dose: 200.0 mg/kg/injection, schedule: Q04DX002 (ip), vehicle: saline with Tween-80 87 % of control | dose: 400.0 mg/kg/injection, schedule: Q04DX002 (ip), vehicle: saline with Tween-80 108 % of control

O=C1OC(=O)C2C3OC(C(Cl)C3Cl)C12 (stereo not given)
inactive: [3] 106 % of control | [5] 106 % of control

[O-][n+]1ccc(N2CCOCC2)cc1
inactive: [18] 100 % of control

N#CC12CC=CCC1CCC2=N (stereo not given)
inactive: dose: 12.5 mg/kg/injection, schedule: Q01DX009 (ip), vehicle: Klucel (hydroxypropylcellulose) (HPC) 96 % of control | dose: 25.0 mg/kg/injection, schedule: Q01DX009 (ip), vehicle: Klucel (hydroxypropylcellulose) (HPC) 89 % of control

C1CCC2CC3CCCCC3CC2C1 (stereo not given)
inactive: [18] 90 % of control | dose: 400.0 mg/kg/injection, schedule: Q01DX001 (ip), vehicle: saline 102 % of control

COC(=O)C1CC23C=CCN4CC(C2C)C2(c5ccccc5NC12)C43 (stereo not given)
inactive: dose: 0.03 mg/kg/injection, schedule: Q01DX001 (ip), vehicle: saline 101 % of control | dose: 0.06 mg/kg/injection, schedule: Q01DX001 (ip), vehicle: saline 98 % of control | dose: 0.13 mg/kg/injection, schedule: Q01DX001 (ip), vehicle: saline 93 % of control | dose: 0.25 mg/kg/injection, schedule: Q01DX001 (ip), vehicle: saline 101 % of control | dose: 0.5 mg/kg/injection, schedule: Q01DX001 (ip), vehicle: saline 97 % of control | dose: 1.0 mg/kg/injection, schedule: Q01DX001 (ip), vehicle: saline 97 % of control | dose: 2.0 mg/kg/injection, schedule: Q01DX001 (ip), vehicle: saline 98 % of control | dose: 25.0 mg/kg/injection, schedule: Q01DX001 (ip), vehicle: saline 101 % of control | dose: 50.0 mg/kg/injection, schedule: Q01DX001 (ip), vehicle: saline 95 % of control | [18] 101 % of control

Source: PubChem BioAssay AID248 (DTP/NCI, 2004)
